The test addresses phosphorylated active hERK2 enzyme (Homo sapiens (Human), UniProt P28482). The experiment in a line: Active Human ERK2 (hERK2) Activity Assay (IMAP-FP). The test is classed as biochemical. The conditions noted are these: 0.5 nM hERK2, 30 μM ATP, 60 minutes reaction; read-out: ERK 2 Human average IC50. As for the experimental part:
Active Human ERK2 (hERK2) Activity Assay:
Activated ERK2 activity was determined in an IMAP-FP assay (Molecular Devices).
phosphorylated active hERK2 enzyme, sequence (P28482 whole entry): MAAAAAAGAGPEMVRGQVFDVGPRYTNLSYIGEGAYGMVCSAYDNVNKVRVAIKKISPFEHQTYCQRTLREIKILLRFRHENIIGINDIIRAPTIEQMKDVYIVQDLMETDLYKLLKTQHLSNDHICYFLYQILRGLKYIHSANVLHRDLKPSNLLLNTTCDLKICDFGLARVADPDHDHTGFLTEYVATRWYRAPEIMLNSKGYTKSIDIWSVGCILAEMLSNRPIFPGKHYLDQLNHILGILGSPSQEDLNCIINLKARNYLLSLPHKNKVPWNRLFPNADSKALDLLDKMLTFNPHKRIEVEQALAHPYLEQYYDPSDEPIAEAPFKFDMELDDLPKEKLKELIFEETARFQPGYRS
As a reminder, the IC50 is the midpoint of a concentration-inhibition curve. In the case of `Cc1cc(-c2n[nH]c3cc4c(cc23)CCC(=O)N4O)ccn1` [Example 8, 8-hydroxy-3-(2-methylpyridin-4-yl)-5,6-dihydro-1H-pyrazolo[4,3-g]quinolin-7(8H)-one], the IC50 was determined as 3.6 nM.
In the case of `C[C@H](c1ccccc1)N1Cc2cc3c(N[C@@H](C)C(F)(F)F)n[nH]c3cc2NC1=O` [Example 30, 6-((R)-1-phenylethyl)-3-(((S)-1,1,1-trifluoropropan-2-yl)amino)-5,6-dihydro-1H-pyrazolo[4,3-g]quinazolin-7(8H)-one] it was 25 nM; in that of `COC(=O)Nc1n[nH]c2cc3c(cc12)CN([C@H](C)c1ccccc1)C(=O)N3` [Example 33, (R)-methyl(7-oxo-6-(1-phenylethyl)-5,6,7,8-tetrahydro-1H-pyrazolo[4,3-g]quinazolin-3-yl)carbamate], 5.2 nM.
In the case of `C[C@H](c1ccccc1)N1Cc2cc3c(-c4ccc5nnn(C)c5c4)n[nH]c3cc2NC1=O` [Example 26, (R)-3-(1-methyl-1H-benzo[d][1,2,3]triazol-6-yl)-6-(1-phenylethyl)-5,6-dihydro-1H-pyrazolo[4,3-g]quinazolin-7(8H)-one] it was 0.3 nM.
As for `CCNc1n[nH]c2cc3c(cc12)CN([C@H](C)c1ccccc1)C(=O)N3` [Example 29, (R)-3-(ethylamino)-6-(1-phenylethyl)-5,6-dihydro-1H-pyrazolo[4,3-g]quinazolin-7(8H)-one], the concentration for half-maximal inhibition (IC50) is 22 nM.
In the case of `C[C@H](c1ccccc1)n1c(=O)[nH]c2cc3[nH]nc(N)c3cc2c1=O` [Example 44, (R)-3-amino-6-(1-phenylethyl)-1H-pyrazolo[4,3-g]quinazoline-5,7(6H,8H)-dione], the IC50 was 45 nM.
With `C[C@H](c1ccccc1)N1Cc2cc3cn[nH]c3cc2NC1=O` [Example 31, (R)-6-(1-phenylethyl)-5,6-dihydro-1H-pyrazolo[4,3-g]quinazolin-7(8H)-one], the concentration for half-maximal inhibition (IC50) was 55 nM.
`C[C@H](c1ccccc1)N1Cc2cc3c(N)n[nH]c3cc2NC1=O` [Example 32, (R)-3-amino-6-(1-phenylethyl)-5,6-dihydro-1H-pyrazolo[4,3-g]quinazolin-7(8H)-one]: the IC50 amounted to 21 nM.

The values are drawn from patent US9745307B2, “Compounds that are ERK inhibitors” (Merck Sharp & Dohme Corp., priority 2013, dated 2017).
